Test results from patent US20180042919A1, “PARP Inhibitors for the Treatment of Major Depressive Disorder and Related Conditions” (East Tennessee State University Research Foundation, priority 2016, published 2018).

Assays:
Format in all cases: in vivo, rat
[1] = test system: Male Sprague-Dawley rats; assay: Porsolt swim test (forced swim stress test)
Excerpt: Laboratory Animals: The use of animals for this study was approved by the University Committee on Animal Care at East Tennessee State University. All rats were ordered from Envigo, Inc. (Indianapolis, Ind., USA). Male Sprague-Dawley rats (225-250 g upon arrival) were used as subjects in the Porsolt swim test and were socially housed in groups of 2-3 per cage. Rats used as ‘intruders’ in the social defeat paradigm were individually housed and provided enrichment per the NIH Guidelines for the Care and Use of Animals. Intruder rats were male Sprague-Dawley rats (225-250 g). In addition, a total of 14 female Sprague-Dawley rats weighing 175-199 g upon arrival were obtained for the social defeat paradigm and these rats were socially housed for 6 days in the animal colony prior to fallopian tube ligature, performed as previously described. (Szebeni et al., 2016). Sixteen male Long-Evans hooded rats weighing 250-275 g upon arrival were used as ‘residents’ in the social defeat paradigm. A climate-controlled vivarium was utilized and animals were kept on a 12 h on/12 off light/dark cycle. Porsolt swim test: Different groups of animals were tested in the Porsolt swim test. Rats were treated using the same drug treatment regimen as with the SDS/CUS paradigm, except as noted in the combined drug treatments as noted in the Results. On the eighth day of drug treatment, all animals began behavioral testing in the Porsolt swim test, also known as the forced swim stress test. All animals were tested in black cylinders measuring 36 cm in diameter, and these cylinders were filled with water of 23-25° C. following procedures as reviewed previously (Bogdanova et al., 2013), consistent with the original procedure of Porsolt and coworkers (Porsolt et al., 1978). All animals were given a pre-swim exposure test on the first day of testing, 24 h before the swim test session the following day. On the first day of testing, animals were exposed to the water for 15 min, and on the second day were given a 5 min trial. The two dependent measures used for forced swim stress was the latency to first immobility episode (immobility lasting >5 s) and the total immobility time over the 5 min period, both recorded on the second day of testing. All movements of the animal were recorded by behavioral scanning software (ANY-maze, Stoelting Co., Wood Dale, Ill., USA). Drug administration: All drugs used in the study, 3-aminobenzamide (Product no. A0788; 3-AB), 5-AIQ hydrochloride (Product no. […] F132), were obtained from Sigma-Aldrich, Inc. (St. Louis, Mo., USA). Statistical analysis: A Grubb's test was used to remove statistical outliers from each dataset prior to analyses. Statistical analyses were otherwise performed as indicated using IBM SPSS Statistics (version 23.0) and data were graphed using GraphPad Prism (version 5.0b, GraphPad Software, La Jolla, Calif.). An independent sample t-test was used to analyze data generated when only two groups were analyzed. An analysis of variance (ANOVA) was used to test multiple group comparisons. For post hoc statistical comparisons, a Bonferroni-correction was applied (as noted) to limit Type I error in multiple post-hoc comparisons. For the combined drug treatment experiment, ANOVA was followed by a Dunnett's Multiple Comparison test that focused comparisons of drug treatment groups to the vehicle control group. All data are expressed as mean±standard error of the mean.

[2] = test system: Male Sprague-Dawley rats; assay: Sucrose preference in rats exposed to repeated social defeat stress plus chronic unpredictable stress; conditions: 2 h prior to social defeat, vs stressed rats treated with vehicle
Experimental: (§1) Social Defeat Stress (SDS): SDS was induced as described previously (Covington and Miczek, 2001; Szebeni et al., 2016). Briefly, Long-Evans hooded rats (‘residents’) were each mated with a female (ligated) rat for a 7-day period. On the eighth day and after removal of the female, an ‘intruder’ rat was placed into the cage for a 5 min period and dominance was established by the resident. Defeat was produced between 0900 and 1000 h daily for 10 consecutive days. Control rats not exposed to defeat were handled each day during this same time period.
(§2) Chronic unpredictable stress (CUS): CUS was performed after SDS on the same day, but at random times either during the day or evening as previously described (Bondi et al., 2008; Szebeni et al., 2016). Different stressors were randomly arranged and occurred at random times during the light or dark cycle of each day for 10 consecutive days. […]
Sucrose Preference: Sucrose preference was performed during the final three days of induction of social defeat stress (days 8-10), using a procedure based on that of D'Aquila et al. (1997). […] Amounts of sucrose consumed were calculated as percentages of the total amount of fluid consumed during the 2 h period on each of the 3 days of testing. […] The preference of sucrose over water was used as a measure of animal's sensitivity to reward and expressed as a percent. […]

[3] = test system: Male Sprague-Dawley rats; assay: Social interaction test in rats exposed to repeated social defeat stress plus chronic unpredictable stress
Experimental: as §1
as §2, with “days. All rats were exposed twice to each of 5 different stressors, which included a 30-min restraint, a 1-h shaking/crowding, 10-min cold water (18° C.) swim, a 15-min warm water swim (25° C.) and a 24-h tipped cage.” for “days.”
Social interaction test: The social interaction test was performed 24 h after the last social defeat stress on day 11 of behavioral testing. […] The amount of time spent in a defined interaction zone close to the metal divider was measured using ANYmaze video tracking (Stoelting Co., Wood Dale Ill., USA). […]

[4] = third experiment, 4 mg/kg i.p. 3 times over 24 h, alone, Dunnett's test vs vehicle
[5] = third experiment, 2.5 mg/kg i.p. 3 times over 24 h, alone, Dunnett's test vs vehicle

NC(=O)c1cccc(N)c1 [3-AB, 3-aminobenzamide]
time spent immobile ([1]; preliminary experiment, 40 mg/kg i.p. daily for 10 days, 2 h after injection, vs saline-treated controls, t=2.36, p<0.05): significantly decreased
latency to immobility ([1]; preliminary experiment, 40 mg/kg i.p. daily for 10 days, 2 h after injection, vs saline-treated controls, t=5.56, p<0.001): significant increase
latency to immobility ([1]; second experiment, 0.4 mg/kg i.p. once daily for 10 days, vs vehicle control group): did not significantly differ
latency to immobility ([1]; second experiment, 4 mg/kg i.p. once daily for 10 days, vs vehicle control group): did not significantly differ
latency to immobility ([1]; second experiment, 40 mg/kg i.p. injections 23.5, 5 and 1 h before testing (3-AB×3), vs vehicle control group): did not significantly differ
immobility time ([1]; second experiment, 40 mg/kg i.p. injections 23.5, 5 and 1 h before testing (3-AB×3), vs vehicle group): significantly less time immobile
immobility time ([1]; second experiment, 40 mg/kg i.p. once daily for 10 days, vs vehicle group): significantly less time immobile
latency to immobility ([1]; second experiment, 40 mg/kg i.p. once daily for 10 days, vs vehicle-treated control rats): significantly greater
immobility time [1, 4]: did not significantly affect
latency to immobility [1, 4]: did not significantly affect
sucrose preference ([2]; 40 mg/kg i.p. daily for 10 days, p=0.024): significantly higher
time spent in the interaction zone ([3]; 40 mg/kg i.p. daily for 10 days, vs vehicle-treated rats exposed to stressors, p=0.014): significantly greater

Nc1cccc2c(=O)[nH]ccc12 [5-AIQ, 5-aminoisoquinolinone]
latency to immobility ([1]; second experiment, 0.3 mg/kg i.p. once daily for 10 days, vs vehicle control group): did not significantly differ
immobility time ([1]; second experiment, 0.3 mg/kg i.p. once daily for 10 days, vs vehicle group): significantly less time immobile

CNCCC(Oc1ccc(C(F)(F)F)cc1)c1ccccc1 (centres unmarked) [fluoxetine]
immobility time ([1]; second experiment, 10 mg/kg i.p. injections 23.5, 5 and 1 h before testing, vs vehicle group): significantly less time immobile
latency to immobility ([1]; second experiment, 10 mg/kg i.p. injections 23.5, 5 and 1 h before testing, vs vehicle-treated control rats): significantly greater
immobility time [1, 5]: did not significantly affect
latency to immobility [1, 5]: did not significantly affect
sucrose preference ([2]; 10 mg/kg i.p. daily for 10 days, p=0.005): significantly higher
time spent in the interaction zone ([3]; 10 mg/kg i.p. daily for 10 days, difference vs vehicle-treated rats exposed to stress, appeared greater, p=0.073): did not reach statistical significance
